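Assay format: 96-well plates, 48-hour exposure. TGI: concentration producing complete growth inhibition.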
What was measured:
Test in all cases: DTP human tumour cell line panel, 48 h
[1] = system: IGROV1 ovarian
[2] = system: COLO 205 colon
[3] = system: OVCAR-3 ovarian
[4] = system: KM12 colon
[5] = system: HT29 colon
[6] = system: SN12C renal
[7] = system: SF-295 CNS
[8] = system: OVCAR-8 ovarian
[9] = system: M14 melanoma
[10] = system: CCRF-CEM leukemia
[11] = system: U251 CNS
[12] = system: UACC-257 melanoma
[13] = system: SW-620 colon
[14] = system: K-562 leukemia
[15] = system: CAKI-1 renal
[16] = system: TK-10 renal
[17] = system: ACHN renal
[18] = system: NCI-H23 lung
[19] = system: OVCAR-4 ovarian
[20] = system: MALME-3M melanoma

Structure (SMILES)	TGI [1] [µM]	TGI [2] [µM]	TGI [3] [µM]	TGI [4] [µM]	TGI [5] [µM]	TGI [6] [µM]	TGI [7] [µM]	TGI [8] [µM]	TGI [9] [µM]	TGI [10] [µM]	TGI [11] [µM]	TGI [12] [µM]	TGI [13] [µM]	TGI [14] [µM]	TGI [15] [µM]	TGI [16] [µM]	TGI [17] [µM]	TGI [18] [µM]	TGI [19] [µM]	TGI [20] [µM]
COc1cccc(CC2Cc3ccccc3CC(=O)N2)c1 (centres undefined)	> 100	> 100	> 100	> 100	> 100	> 100	> 100	> 100	93.3	> 100	> 100	> 100	> 100	> 100	68.6	> 100	> 100	> 100	> 100	
O=C1OCc2cccc3c2-c2c1cccc2C(=O)OC3	> 100	> 100	> 100	> 100	> 100		> 100	> 100	> 100		> 100			> 100	> 100	> 100		> 100	> 100	> 100
c1ccc(-c2nnc(-c3nsc4ccccc34)o2)cc1	> 100	> 100	> 100	> 100	> 100	> 100		> 100	> 100	> 100	> 100	> 100	> 100	> 100		> 100		> 100	> 100	
CCOC(=O)C1=C(C)N(NC(N)=O)C2(O)CCCC(=O)C12C (centres undefined)	> 100	> 100	> 100	> 100	> 100	> 100	> 100	> 100	> 100		> 100	> 100	> 100		> 100	> 100	> 100	> 100	> 100	> 100
O=C(O)C12CCCC(CCC1)C2	> 100	> 100	> 100	> 100	> 100	> 100	> 100	> 100	> 100	> 100	> 100	> 100	> 100	> 100	> 100	> 100	> 100	> 100	> 100	> 100
CC(C)C1OC(/C=C/c2ccccc2)OCC1(C)C (centres undefined)	> 100	31.2	44.9	> 100	> 100	44	> 100	> 100	> 100	41.8	60.8	63.6	> 100	> 100	> 100	80.8	> 100	98.9	> 100	25.8
NC(CCOCCP(=O)(O)CCOCCC(N)C(=O)O)C(=O)O (centres undefined)	> 100	> 100	> 100	> 100	> 100	> 100	> 100	> 100	> 100	> 100	> 100	> 100	> 100	> 100	> 100	> 100	> 100	> 100	> 100	
CCCCC(=O)Oc1ccc2c(C)cc(=O)oc2c1	> 100	> 100	> 100	> 100	> 100	> 100	> 100	> 100	> 100	> 100	> 100	> 100	> 100	> 100	> 100	> 100	> 100	> 100	> 100	> 100
CCCCS(=O)(=O)Nc1ccc(Nc2c3ccccc3nc3ccccc23)c(OC)c1	24.9	20.2	16.3	14.8	6.37	5.77	9.84	13.3		6.26	5.85	18.6	14.2	16.5	10.1			11.3	18.8	7.99

Source: PubChem BioAssay (NCI)
